Source: EP4599821A1, “CANNABIDIOL-COMPRISING LIPOSOMES” (Novozymatic BV, priority 2024, dated 2025)

What was measured:
[1] = cited from earlier work
[2] = Visual appearance of diluted reference and intravenous CBD formulations; format: physicochemical
Text: As a control for the CBD granules, a commercial product was used, namely Epidyolex.
When comparing the two solutions, the second approach qualified as a suitable injectable formulation for the rat study.

In the case of `C=C(C)[C@@H]1CCC(C)=C[C@H]1c1c(O)cc(CCCCC)cc1O` [CBD, cannabidiol], the “Cmax (maximum concentration)” value ([1]; 20 mg of orally delivered CBD/THC sprayed onto a gelatin capsule) is given as 2.4 ng/mL, the “Time to peak plasma concentration” value ([1]; oral delivery) is given as 1 to 4 h and the “visual appearance of intravenous formulation” value ([2]; first approach: 50 mg/ml in 95% ethanol, diluted to 1 mg/ml in 96% saline and 2% polysorbate 80) is given as “formation of fat drops”. For the same molecule, the “visual appearance of intravenous formulation” value ([2]; second approach: 50 mg/ml in 1:1 ethanol: polysorbate 80, diluted to 1 mg/ml in 98% saline, 10 or 20 min rest) was “no fat drops and no sediment were observed”.
